Reference: ChEMBL document CHEMBL3286339, “Synthesis and in vivo SAR study of indolin-2-one-based multi-targeted inhibitors as potential anticancer agents” (Eur J Med Chem, 2014)
Calls of active or inactive are those of the source. No cut-off for these calls is given here.

Columns and labels:
[1] = tested on: Mus musculus; assay: Toxicity in BALB/c nude mouse xenografted with human NCI-H460 cells assessed as bloody stool at 40 mg/kg/day administered qd measured after 9 days; type: organism-based; conditions: in vivo, 216 h
[2] = tested on: Mus musculus; assay: Toxicity in BALB/c nude mouse xenografted with human NCI-H460 cells assessed as mortality at 40 mg/kg/day administered qd measured on day 15; type: organism-based; conditions: in vivo
[3] = tested on: Aorta; assay: Inhibition of micrangium generation in Sprague-Dawley rat aortic ring at 0.2 ug/ml after 6 days by inverted microscopic analysis; type: functional, tissue-based
[4] = tested on: Aorta; assay: Antiangiogenic activity in Sprague-Dawley rat aortic ring at 0.2 ug/ml after 6 days by inverted microscopic analysis; type: functional, tissue-based
[5] = tested on: Mus musculus; assay: Toxicity in BALB/c nude mouse xenografted with human NCI-H460 cells assessed as weakness at 40 mg/kg/day administered qd; type: organism-based; conditions: in vivo
[6] = tested on: Mus musculus; assay: Toxicity in BALB/c nude mouse xenografted with human NCI-H460 cells assessed as lethargic behavior at 40 mg/kg/day administered qd; type: organism-based; conditions: in vivo
[7] = tested on: Mus musculus; assay: Toxicity in BALB/c nude mouse xenografted with human NCI-H460 cells assessed as severe weight loss at 40 mg/kg/day administered qd measured after 9 days; type: organism-based; conditions: in vivo, 216 h
[8] = tested on: NCI-H460; assay: Antitumor activity against human NCI-H460 cells xenografted in BALB/c nude mouse assessed as tumor growth inhibition at 40 mg/kg/day administered qd measured up to day 21 relative to control; type: functional
[9] = tested on: Mus musculus; assay: Toxicity in BALB/c nude mouse xenografted with human NCI-H460 cells assessed as hematuria at 40 mg/kg/day administered qd; type: organism-based; conditions: in vivo
[10] = tested on: Mus musculus; assay: Toxicity in BALB/c nude mouse xenografted with human NCI-H460 cells assessed as severe weight loss at 40 mg/kg/day administered qd; type: organism-based; conditions: in vivo
[11] = tested on: Mus musculus; assay: Toxicity in BALB/c nude mouse xenografted with human NCI-H460 cells assessed as bloody stool at 40 mg/kg/day administered qd; type: organism-based; conditions: in vivo
[12] = tested on: Mus musculus; assay: Toxicity in BALB/c nude mouse xenografted with human HT-29 cells assessed as mortality at 80 mg/kg/day administered qd measured on day 12; type: organism-based; conditions: in vivo
[13] = tested on: Mus musculus; assay: Toxicity in BALB/c nude mouse xenografted with human HT-29 cells assessed as severe weight loss at 80 mg/kg/day administered qd measured after 3 days; type: organism-based; conditions: in vivo, 72 h
[14] = tested on: Mus musculus; assay: Toxicity in BALB/c nude mouse xenografted with human HT-29 cells assessed as severe weight loss at 80 mg/kg/day administered qd; type: organism-based; conditions: in vivo
[15] = tested on: HT-29; assay: Antitumor activity against human HT-29 cells xenografted in BALB/c nude mouse assessed as tumor growth inhibition at 80 mg/kg/day administered qd measured up to day 21 relative to control; type: functional
[16] = tested on: Mus musculus; assay: Toxicity in BALB/c nude mouse xenografted with human HT-29 cells assessed as hematuria at 80 mg/kg/day administered qd measured up to day 21; type: organism-based; conditions: in vivo
[17] = tested on: Mus musculus; assay: Toxicity in BALB/c nude mouse xenografted with human HT-29 cells assessed as bloody stool at 80 mg/kg/day administered qd measured up to day 21; type: organism-based; conditions: in vivo
[18] = tested on: Mus musculus; assay: Toxicity in BALB/c nude mouse xenografted with human HT-29 cells assessed as development of diarrhea at 80 mg/kg/day administered qd; type: organism-based; conditions: in vivo
[19] = tested on: Mus musculus; assay: Toxicity in BALB/c nude mouse xenografted with human HT-29 cells assessed as weakness at 80 mg/kg/day administered qd; type: organism-based; conditions: in vivo
[20] = tested on: Mus musculus; assay: Toxicity in BALB/c nude mouse xenografted with human HT-29 cells assessed as mortality at 80 mg/kg/day administered qd measured after 6 days; type: organism-based; conditions: in vivo, 144 h
[21] = tested on: Mus musculus; assay: Toxicity in BALB/c nude mouse xenografted with human HT-29 cells assessed as lethargic behavior at 80 mg/kg/day administered qd; type: organism-based; conditions: in vivo
[22] = tested on: Mus musculus; assay: Toxicity in BALB/c nude mouse xenografted with human HT-29 cells assessed as severe weight loss at 80 mg/kg/day administered qd measured after 6 days; type: organism-based; conditions: in vivo, 144 h
[23] = tested on: Mus musculus; assay: Toxicity in BALB/c nude mouse xenografted with human HT-29 cells assessed as weight loss at 80 mg/kg/day administered qd measured up to day 21; type: organism-based; conditions: in vivo
[24] = tested on: Mus musculus; assay: Toxicity in BALB/c nude mouse xenografted with human HT-29 cells assessed as severe weight loss at 80 mg/kg/day administered qd measured after 9 days; type: organism-based; conditions: in vivo, 216 h
[25] = tested on: Mus musculus; assay: Toxicity in BALB/c nude mouse xenografted with human HT-29 cells assessed as mortality at 80 mg/kg/day administered qd measured on day 15; type: organism-based; conditions: in vivo
[26] = tested on: Mus musculus; assay: Toxicity in BALB/c nude mouse xenografted with human HT-29 cells assessed as mortality at 80 mg/kg/day administered qd measured on day 21; type: organism-based; conditions: in vivo
[27] = Antiproliferative activity against human NCI-H3122 cells after 72 hrs by MTT assay; type: functional, cell-based; conditions: NCI-H3122, 72 h
[28] = Antiproliferative activity against human HK2 cells after 72 hrs by MTT assay; type: cell-based; conditions: HK-2, 72 h
[29] = tested on: NCI-H460; assay: Antiproliferative activity against human NCI-H460 cells after 72 hrs by MTT assay; type: functional, cell-based; conditions: NCI-H460, 72 h
[30] = Antiproliferative activity against human MV411 cells after 48 hrs by MTT assay; type: functional, cell-based; conditions: MV4-11, 48 h
[31] = tested on: Mus musculus; assay: Toxicity in BALB/c nude mouse xenografted with human HT-29 cells assessed as change in body weight at 80 mg/kg/day administered qd relative to control; type: organism-based; conditions: in vivo
[32] = tested on: Mus musculus; assay: Toxicity in BALB/c nude mouse xenografted with human NCI-H460 cells assessed as change in body weight at 40 mg/kg/day administered qd relative to control; type: organism-based; conditions: in vivo
[33] = Antiproliferative activity against human Bel7402 cells after 72 hrs by MTT assay; type: functional, cell-based; conditions: Bel-7402, 72 h
[34] = tested on: Mus musculus; assay: Toxicity in BALB/c nude mouse xenografted with human HT-29 cells assessed as severe weight loss at 80 mg/kg/day administered qd measured after 12 to 15 days; type: organism-based; conditions: in vivo
[35] = Antiproliferative activity against human LO2 cells after 72 hrs by MTT assay; type: cell-based; conditions: L02, 72 h
[36] = tested on: NCI-H526; assay: Antiproliferative activity against human NCI-H526 cells after 72 hrs by MTT assay; type: functional, cell-based; conditions: NCI-H526, 72 h
[37] = tested on: TT; assay: Antiproliferative activity against human TT cells pretreated for 72 hrs followed by compound-washout measured after 72 hrs by MTT assay; type: functional, cell-based

With `Cc1[nH]c(/C=C2\C(=O)Nc3ccc(F)cc32)c(C)c1NC(=O)CN1CCN(C)CC1` the Activity [1] was “Toxic”, the Activity [2] was “Toxic” and the inhibition [3] was “Active”. For the same compound, the inhibition [4] was “Active”, the Activity [5] was “Toxic” and the Activity [6] was “Toxic”. The Activity [7] was “Toxic”.

In the case of `Cc1[nH]c(/C=C2\C(=O)Nc3ccc(F)cc32)c(C)c1NC(=O)CN1CCCCC1`, the TGI [8] is reported as “inactive”, the Activity [9] is reported as “Non-toxic” and the inhibition [3] is reported as “Active”. The inhibition [4] was “Active”, the Activity [10] was “Non-toxic” and the Activity [11] was “Non-toxic”.

In the case of `CCN(CC)CCC(=O)Nc1c(C)[nH]c(/C=C2\C(=O)Nc3ccc(Cl)cc32)c1C`, the Activity [12] is reported as “Toxic”, the Activity [13] is reported as “Toxic” and the inhibition [3] is reported as “Active”. The inhibition [4] was “Active”.

With `CCN(CC)CCC(=O)Nc1c(C)[nH]c(/C=C2\C(=O)Nc3ccc(Br)cc32)c1C` the Activity [14] was “Toxic”, the Activity [15] was “Active” and the inhibition [3] was “Active”. The inhibition [4] was “Active”.

For `Cc1[nH]c(/C=C2\C(=O)Nc3ccc(F)cc32)c(C)c1NC(=O)CCCN(C)C`, the Activity [15] was “Active”, the inhibition [3] was “Active” and the inhibition [4] was “Active”.

In the case of `Cc1[nH]c(/C=C2\C(=O)Nc3ccc(F)cc32)c(C)c1NC(=O)CCN1CCCCC1`, the Activity [14] is reported as “Non-toxic”, the TGI [8] is reported as “Active” and the Activity [9] is reported as “Non-toxic”. For the same compound, the Activity [15] was “Active”, the inhibition [3] was “Active” and the inhibition [4] was “Active”. For the same compound, the Activity [10] was “Non-toxic”, the Activity [16] was “Non-toxic” and the Activity [11] was “Non-toxic”. For the same compound, the Activity [17] was “Non-toxic”.

With `Cc1[nH]c(/C=C2\C(=O)Nc3ccc(F)cc32)c(C)c1NC(=O)CCN1CCCC1` the TGI [8] was “Active”, the Activity [9] was “Non-toxic” and the inhibition [3] was “Active”. The inhibition [4] was “Active”, the Activity [10] was “Non-toxic” and the Activity [11] was “Non-toxic”.

In the case of `Cc1[nH]c(/C=C2\C(=O)Nc3ccc(F)cc32)c(C)c1NC(=O)CCN(C)C`, the Activity [15] is reported as “Active”, the inhibition [3] is reported as “Active” and the inhibition [4] is reported as “Active”.

For `Cc1[nH]c(/C=C2\C(=O)Nc3ccc(F)cc32)c(C)c1NC(=O)/C=C/CN(C)C`, the Activity [15] was “inactive”, the inhibition [3] was “Active” and the inhibition [4] was “Active”.

With `Cc1[nH]c(/C=C2\C(=O)Nc3ccc(F)cc32)c(C)c1C(=O)N1CCC(N(C)C)CC1` the Activity [18] was “Toxic”, the Activity [15] was “Active” and the inhibition [3] was “Active”. For the same compound, the inhibition [4] was “Active”, the Activity [19] was “Toxic” and the Activity [20] was “Toxic”. The Activity [21] was “Toxic” and the Activity [22] was “Toxic”.

For `CCN1CCN(C(=O)c2c(C)[nH]c(/C=C3\C(=O)Nc4ccc(F)cc43)c2C)CC1`, the Activity [23] was “Non-toxic”, the Activity [15] was “Active” and the inhibition [3] was “Active”. The inhibition [4] was “Active”, the Activity [16] was “Non-toxic” and the Activity [17] was “Non-toxic”.

In the case of `CCN(CC)C1CCN(C(=O)c2c(C)[nH]c(/C=C3\C(=O)Nc4ccc(F)cc43)c2C)CC1`, the Activity [18] is reported as “Toxic”, the Activity [24] is reported as “Toxic” and the Activity [15] is reported as “Active”. The inhibition [3] was “Active”, the inhibition [4] was “Active” and the Activity [25] was “Toxic”. The Activity [19] was “Toxic”, the Activity [21] was “Toxic” and the Activity [22] was “Toxic”.

For `Cc1[nH]c(/C=C2\C(=O)Nc3ccc(F)cc32)c(C)c1C(=O)N1CCN(C)CC1`, the Activity [23] was “Non-toxic”, the Activity [15] was “Active” and the inhibition [3] was “Active”. The inhibition [4] was “Active”, the Activity [16] was “Non-toxic” and the Activity [17] was “Non-toxic”.

In the case of `CCN(CC)CCNC(=O)c1c(C)[nH]c(/C=C2\C(=O)Nc3ccc(F)cc32)c1C` [SUNITINIB], the Activity [26] is reported as “Toxic”, the IC50 [27] is reported as 830 nM and the IC50 [28] is reported as 5850 nM. The TGI [8] was “Active”, the IC50 [29] was 4310 nM and the IC50 [30] was 3 nM. The Activity [31] was -24.1%, the Activity [15] was “Active” and the Activity ([15]; record 2) was 88.9%. The Activity [32] was 12.3%, the IC50 [33] was 2670 nM and the Activity [34] was “Toxic”. The IC50 [35] was 19900 nM, the IC50 [36] was 1010 nM and the IC50 [37] was 40 nM.

In the case of `CCN1CCN(CCC(=O)Nc2c(C)[nH]c(/C=C3\C(=O)Nc4ccc(F)cc43)c2C)CC1`, the Activity [14] is reported as “Non-toxic”, the TGI [8] is reported as “Active” and the Activity [9] is reported as “Non-toxic”. The Activity [15] was “Active”, the inhibition [3] was “Active” and the inhibition [4] was “Active”. The Activity [10] was “Non-toxic”, the Activity [16] was “Non-toxic” and the Activity [11] was “Non-toxic”. The Activity [17] was “Non-toxic”.

For `Cc1[nH]c(/C=C2\C(=O)Nc3ccc(F)cc32)c(C)c1NC(=O)CCN1CCOCC1`, the Activity [15] was “inactive”, the inhibition [3] was “Active” and the inhibition [4] was “Active”. The Activity [16] was “Non-toxic” and the Activity [17] was “Non-toxic”.

In the case of `Cc1[nH]c(/C=C2\C(=O)Nc3ccc(F)cc32)c(C)c1C(=O)N1CCN(CCO)CC1`, the Activity [15] is reported as “inactive”, the inhibition [3] is reported as “Active” and the inhibition [4] is reported as “Active”.

For `CCN(CC)CCC(=O)Nc1c(C)[nH]c(/C=C2\C(=O)Nc3ccc(F)cc32)c1C`, the Activity [15] was “Active”, the inhibition [3] was “Active” and the inhibition [4] was “Active”. The Activity [25] was “Toxic” and the Activity [22] was “Toxic”.
